Data on 2 compounds can be found in patent US6809181B2, “Human beta-defensin-3 (HBD-3), a highly cationic beta-defensin antimicrobial peptide” (University of Iowa Research Foundation, priority 2000, dated 2004).

For one assay, the system named is Mycoplasma hominis. Particulars: n=28, r140, cited from earlier work.
In another assay the test system is Mycoplasma pneumoniae. Particulars: n=11, r141, cited from earlier work.
The next assay has as its system Staphylococcus aureus. To be noted: n=100, r142, cited from earlier work.
The subject of the next assay is Ureaplasma urealyticum. Particulars: n=19, r143, cited from earlier work.
Assay [1] concerns HBD-3 mRNA expression in fetal lung explants. Description: RT-PCR of HBD-3 mRNA in fetal lung explants. It is filed as cell-based, human. Particulars: 100 ng/ml IL-1β for 24 h.
In assay [2] the test system is HBD-3 mRNA expression in cultured gingival keratinocytes. Kind of assay: RT-PCR of HBD-3 mRNA in cultured gingival keratinocytes. It is filed as cell-based, human. To be noted: 100 ng/ml IL-1β for 24 h.

In brackets after ≈: the same amount, converted by molar mass.

Broadly, the MIC50 is an inhibitory concentration at the 50% level, which refers to growth in some studies and to a panel of isolates in others. By MIC90 is commonly meant an inhibitory concentration at the 90% level, which refers to growth in some studies and to a panel of isolates in others. Turning to `CCC[C@@H]1C[C@@H](C(=O)N[C@@H]([C@H]2O[C@H](SC)[C@H](O)[C@@H](O)[C@H]2O)[C@@H](C)O)N(C)C1` [LINCOMYCIN, lincomycin], the Range with Mycoplasma hominis is reported as 0.5-16; with Mycoplasma pneumoniae it was 2-32; in the assay on Staphylococcus aureus, 0.5-512; in the assay on Ureaplasma urealyticum it was 64-128. Besides, the MIC50 in the assay on Mycoplasma hominis (unit assumed) was 2 µg/mL (≈ 4.92 µM); in the assay on Mycoplasma pneumoniae (unit assumed), 8 µg/mL (≈ 19.7 µM); in the assay with Staphylococcus aureus (unit assumed), 1 µg/mL (≈ 2.46 µM); in the assay with Ureaplasma urealyticum (unit assumed), 128 µg/mL (≈ 315 µM). Moreover, the MIC90 in the assay on Mycoplasma hominis (unit assumed) was 4 µg/mL (≈ 9.84 µM); in the assay on Mycoplasma pneumoniae (unit assumed), 32 µg/mL (≈ 78.7 µM); in the assay with Staphylococcus aureus (unit assumed) it was 1 µg/mL (≈ 2.46 µM); in the assay with Ureaplasma urealyticum (unit assumed) it was 128 µg/mL (≈ 315 µM).

On to “IL-1β: IL-1β (R & D Systems), pro-inflammatory stimulus used at 100 ng/ml to induce HBD-3 mRNA expression”, for which the “HBD-3 mRNA expression” value in assay [1] and in assay [2] was “increased markedly” each time.
